# Read-outs that look alike come from different tables or passages of the source.
# What was measured:
# NRSF mediated repression = assay: gal4-NRSF luciferase reporter (G5-TATA-Luc) in JTC-19 cells; format: cell-based, rat
# CtBP2 binding to NRSF [1] = biological target: T1, CtBP2 binding to NRSF (Mus musculus, UniProt P56546); assay: immunoprecipitation of MYC-NRSF with KT3-CtBP2 from HEK cells at NADH concentrations
# T1 construct: expressed in transfected cells; host or cells: HEK-293 cells
# Procedure: Protein was harvested, incubated with the indicated concentrations of NADH and immunoprecipitated with anti-KT3 antibody or anti-Jun antibody as sham. Immune complexes were subjected to Western blot analysis with anti-MYC antibody.
# As NADH concentrations regulate CtBP2 binding to a number of transcription factors (see Zhang et al., 2002, Id.; Mirnezami et al., 2003, Id.; Kim et al., 2005, Nat Struct Mol Biol 12: 423-8) and the non-NADH binding G189A CtBP mutant abolishes metabolic sensitivity of NRSF function, CtBP2 binding to NRSF was tested as a function of NADH concentration. In these experiments, HEK cells were co-transfected with plasmids expressing MYC-tagged NRSF or KT3-tagged CtBP2 as described above. Protein was harvested, incubated with NADH at concentrations from 0-1000 nM and immunoprecipitated with anti-KT3 antibody or anti-Jun antibody as sham. Immune complexes were subjected to Western blot analysis using an anti-MYC antibody conjugated with horseradish peroxidase as described above and in Roopra et al. (2004, Id.). […] Half maximal binding occurred at a physiologically relevant concentrations of ˜70 nM (data not shown).
# CtBP2 binding to NRSF [2] = biological target: T2, CtBP2 binding to NRSF (Homo sapiens, UniProt P56545); assay: binding of recombinant 6x-HIS-CtBP2 to immunopurified MYC-tagged NRSF with NADH; conditions: recombinant CtBP2 pre-incubated with NADH
# T2 construct: made in house
# Procedure: Immunoprecipitation experiments were performed to examine CtBP2/NRSF binding and the effect of increasing NADH concentration on such binding. In these experiments, soluble recombinant 6×-HIS-tagged CtBP2 (produced using the Qiagen Expression System, Qiagen, Valencia, Calif., according to the manufacturer's instructions) was pre-incubated with indicated concentrations of NADH and then added to immunopurified, antibody and bead bound MYC-tagged NRSF protein (Roopra et al., 2000, Id.) while maintaining the appropriate NADH concentration. The resulting complexes were harvested, washed and subjected to Western blot analysis with an antibody to the 6×-HIS tag on CtBP2 (Qiagen). CtBP2 binding to NRSF is abrogated in the presence of NADH, showing that the NRSF-CtBP2 interaction is sensitive to NADH concentration.
# T1 sequence (P56546 whole entry): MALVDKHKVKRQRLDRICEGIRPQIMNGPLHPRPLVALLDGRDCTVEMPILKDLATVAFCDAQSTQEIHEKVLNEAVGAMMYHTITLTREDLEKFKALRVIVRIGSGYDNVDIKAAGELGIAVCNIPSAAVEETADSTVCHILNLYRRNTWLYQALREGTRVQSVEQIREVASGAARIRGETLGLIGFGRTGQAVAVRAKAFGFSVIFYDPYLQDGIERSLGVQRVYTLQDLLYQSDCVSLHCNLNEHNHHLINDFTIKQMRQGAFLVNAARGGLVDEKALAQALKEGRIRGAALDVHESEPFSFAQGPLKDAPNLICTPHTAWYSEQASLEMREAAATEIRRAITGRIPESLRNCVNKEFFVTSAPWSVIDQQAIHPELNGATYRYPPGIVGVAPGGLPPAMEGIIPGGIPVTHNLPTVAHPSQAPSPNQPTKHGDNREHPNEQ
smiles,measurement,setting,value
"[Cl-].[Cl-].[Co+2] [CoCl2, reference compound]",repression of luciferase reporter gene expression by NRSF (fold repression gal4 DBD/gal4-NRSF),NRSF mediated repression,decreased repression
NC(=O)C1=CN([C@@H]2O[C@H](COP(=O)(O)OP(=O)(O)OC[C@H]3O[C@@H](n4cnc5c(N)ncnc54)[C@H](O)[C@@H]3O)[C@@H](O)[C@H]2O)C=CC1 [NADH],IC50,"CtBP2 binding to NRSF [1]; HEK cell protein incubated with NADH 0-1000 nM, data not shown, read-out: NADH concentration of half maximal binding of CtBP to NRSF",~70 nM
same,effect on binding of CtBP to NRSF,"CtBP2 binding to NRSF [1]; increasing concentrations of NADH, 0-1000 nM, dose dependent",disrupted binding
same,CtBP2 binding to NRSF,CtBP2 binding to NRSF [2],abrogated
"O=C(O)CC(O)(CC(=O)O)C(=O)O [citrate, reference compound]",repression of luciferase reporter gene expression by NRSF (fold repression gal4 DBD/gal4-NRSF),"NRSF mediated repression; JTC-19 cells, 16 hrs",increased repression

# Source: patent US7557085B2, “Metabolic-based methods for modulating gene expression” (Wisconsin Alumni Research Foundation, priority 2005, dated 2009)
